Reference: patent publication US11840527B2, “Non-fused thiophene derivatives and their uses” (ENYO PHARMA, priority 2018, dated 2023)

Test system: H1N1 (influenza A/New Caledonia/20/99)
Experiment: Antiviral effect on A549 cells infected with H1N1
Type: cell-based, H1N1 A/New Caledonia/20/99 virus
Conditions: Influenza A virus, MOI 0.1, 48 h post-infection, MUNANA neuraminidase readout
Procedure: The antiviral effect of the compounds of the invention have been tested on A549 cell lines infected with H1N1 (influenza A/New Caledonia/20/99).
Human A549 cells (80,000 cells/well in a 96 well plate) were treated with a range of concentration of test compounds and immediately infected by H1N1 A/New Caledonia/20/99 virus (clinical isolate) at MOI of 0.1 in DMEM/1% Penicillin/streptomycin supplemented with […] TPCK trypsin (Sigma) and incubated at 37° C. in 5% CO2. 48 h post-infection, supernatants (25 μl) were collected and transferred into a 96-well black flat-bottom plate, mixed with 25 μl PBS with Ca++/Mg++ (Thermo Fisher) and 50 μl of 2′-(4-Methylumbelliferyl)-ax-D-N-acetylneuraminic acid sodium salt hydrate stock-solution (20 μM, MUNANA, Sigma). Plates were incubated 1h at 37° C. and reaction is stopped by adding 100 μl of Stop Solution (glycine 0.1 M pH10.7/25% ethanol). The amount of fluorescent product released by MUNANA hydrolysis (4-MU) was measured in a Tecan spectrophotometer with excitation and emission wavelengths of 365 and 450 nm respectively.

| Structure (SMILES) | IC50 [nM] |
| --- | --- |
| Cc1sc(NC(=O)c2ccccc2)c(C(=O)O)c1-c1ccc(Cl)cc1 [Compound #4, 2-Benzamido-4-(4-chlorophenyl)-5-methyl-thiophene-3-carboxylic acid] | 170 |
| Cc1sc(NC(=O)c2ccc(OC(F)F)cc2)c(C(=O)O)c1-c1ccc(Cl)cc1 [Compound #5, 4-(4-Chlorophenyl)-2-[[4-(difluoromethoxy)benzoyl]amino]-5-methyl-thiophene-3-carboxylic acid] | 260 |
| O=C(Nc1sc(Cl)c(-c2ccc(Cl)c(F)c2)c1C(=O)O)c1ccccc1 [Compound #6, 2-Benzamido-5-chloro-4-(4-chloro-3-fluoro-phenyl)thiophene-3-carboxylic acid] | 247 |
| O=C(Nc1scc(C2CCCC2)c1C(=O)O)c1ccccc1 [Compound #10, 2-Benzamido-4-cyclopentyl-thiophene-3-carboxylic acid] | 205 |
| O=C(Nc1scc(C2CCCCC2)c1C(=O)O)c1ccc(OC(F)F)cc1 [Compound #11, 4-Cyclohexyl-2-[[4-(difluoromethoxy)benzoyl]amino]thiophene-3-carboxylic acid] | 412 |
| O=C(Nc1sc(Cl)c(C2CCCCC2)c1C(=O)O)c1ccccc1 [Compound #12, 2-Benzamido-5-chloro-4-cyclohexyl-thiophene-3-carboxylic acid] | 245 |
| O=C(Nc1sc(Cl)c(C2CCCCC2)c1C(=O)O)c1ccc(OC(F)F)cc1 [Compound #13, 5-Chloro-4-cyclohexyl-2-[[4-(difluoromethoxy)benzoyl]amino]thiophene-3-carboxylic acid] | 370 |
| Cc1ccccc1C(=O)Nc1sc(Cl)c(C2CCCCC2)c1C(=O)O [Compound #14, 5-Chloro-4-cyclohexyl-2-[(2-methylbenzoyl)amino]thiophene-3-carboxylic acid] | 500 |
| O=C(Nc1sc(Cl)c(C2CCCCC2)c1C(=O)O)c1ccc(N2CCOCC2)cc1 [Compound #15, 5-Chloro-4-cyclohexyl-2-[(4-morpholinobenzoyl)amino]thiophene-3-carboxylic acid] | 225 |
| O=C(Nc1scc(-c2ccc(C(F)(F)F)cc2)c1C(=O)O)c1ccccc1 [Compound #20, 2-Benzamido-4-[4-(trifluoromethyl)phenyl]thiophene-3-carboxylic acid] | 310 |
| Cc1ccc(-c2csc(NC(=O)c3ccccc3)c2C(=O)O)cc1 [Compound #21, 2-Benzamido-4-(p-tolyl)thiophene-3-carboxylic acid] | 610 |
| Cc1ccc(-c2csc(NC(=O)c3ccccc3)c2C(=O)O)cc1C [Compound #22, 2-Benzamido-4-(3,4-dimethylphenyl)thiophene-3-carboxylic acid] | 550 |
| Cc1ccc(-c2c(Cl)sc(NC(=O)c3ccccc3)c2C(=O)O)cc1C [Compound #23, 2-Benzamido-5-chloro-4-(3,4-dimethylphenyl)thiophene-3-carboxylic acid] | 420 |
| Cc1ccc(-c2c(Cl)sc(NC(=O)c3ccccc3)c2C(=O)O)cc1 [Compound #24, 2-Benzamido-5-chloro-4-(p-tolyl)thiophene-3-carboxylic acid] | 350 |
| COc1ccc(C(=O)Nc2scc(C3CCCCC3)c2C(=O)O)cc1OC [Compound #25, 4-Cyclohexyl-2-[(3,4-dimethoxybenzoyl)amino]thiophene-3-carboxylic acid] | 729 |
| Cc1sc(NC(=O)c2ccccc2)c(C(=O)O)c1C1CCCCC1 [Compound #27, 2-Benzamido-4-cyclohexyl-5-methyl-thiophene-3-carboxylic acid] | 880 |
| O=C(Nc1scc(-c2ccccc2)c1C(=O)O)c1ccc(OC(F)F)cc1 [Compound #28, 2-[[4-(Difluoromethoxy)benzoyl]amino]-4-phenyl-thiophene-3-carboxylic acid] | 1270 |
| O=C(Nc1scc(C2CCCCC2)c1C(=O)O)c1ccc(N2CCOCC2)cc1 [Compound #29, 4-Cyclohexyl-2-[(4-morpholinobenzoyl)amino]thiophene-3-carboxylic acid] | 1270 |
| Cc1sc(NC(=O)c2ccc(OC(F)F)cc2)c(C(=O)O)c1-c1ccccc1 [Compound #30, 2-[[4-(Difluoromethoxy)benzoyl]amino]-5-methyl-4-phenyl-thiophene-3-carboxylic acid] | 1370 |
| O=C(Nc1sc(Cl)c(-c2ccccc2)c1C(=O)O)c1ccc(OC(F)F)cc1 [Compound #31, 5-Chloro-2-[[4-(difluoromethoxy)benzoyl]amino]-4-phenyl-thiophene-3-carboxylic acid] | 1370 |
| CC(C)(C)c1csc(NC(=O)c2ccccc2)c1C(=O)O [Compound #32, 2-Benzamido-4-tert-butyl-thiophene-3-carboxylic acid] | 1470 |

| Structure (SMILES) | IC50 [nM] |
| --- | --- |
| O=C(Nc1sc(Cl)c(-c2ccccc2)c1C(=O)O)c1ccccc1 [Compound #33, 2-Benzamido-5-chloro-4-phenyl-thiophene-3-carboxylic acid] | 1470 |
| Cc1sc(NC(=O)c2ccccc2)c(C(=O)O)c1-c1ccccc1 [Compound #34, 2-Benzamido-5-methyl-4-phenyl-thiophene-3-carboxylic acid] | 1480 |
| O=C(Nc1scc(C2CC(F)(F)C2)c1C(=O)O)c1ccccc1 [Compound #35, 2-Benzamido-4-(3,3-difluorocyclobutyl)thiophene-3-carboxylic acid] | 1670 |
| O=C(Nc1scc(-c2cccc(Cl)c2)c1C(=O)O)c1ccccc1 [Compound #36, 2-Benzamido-4-(3-chlorophenyl)thiophene-3-carboxylic acid] | 1670 |
| O=C(Nc1scc(C2C3CCCCC32)c1C(=O)O)c1ccccc1 (stereo not drawn) [Compound #37, 2-Benzamido-4-norcaran-7-yl-thiophene-3-carboxylic acid] | 1870 |
| COc1ccc(-c2csc(NC(=O)c3ccccc3)c2C(=O)O)cc1 [Compound #38, 2-Benzamido-4-(4-methoxyphenyl)thiophene-3-carboxylic acid] | 1870 |
| CC1(C)C(c2csc(NC(=O)c3ccccc3)c2C(=O)O)C1(C)C [Compound #39, 2-Benzamido-4-(2,2,3,3-tetramethylcyclopropyl)thiophene-3-carboxylic acid] | 2370 |
| O=C(Nc1sc(C2CCCCC2)cc1C(=O)O)c1ccc(OC(F)F)cc1 [Compound #41, 5-Cyclohexyl-2-[[4-(difluoromethoxy)benzoyl]amino]thiophene-3-carboxylic acid] | 2570 |
| O=C(Nc1scc(-c2ccccc2)c1C(=O)O)c1ccccc1 [Compound #43, 2-Benzamido-4-phenyl-thiophene-3-carboxylic acid] | 5950 |
| O=C(Nc1scc(-c2ccccc2Cl)c1C(=O)O)c1ccccc1 [Compound #44, 2-Benzamido-4-(2-chlorophenyl)thiophene-3-carboxylic acid] | 6650 |
| Cc1ccccc1C(=O)Nc1sc(-c2ccccc2)cc1C(=O)O [Compound #45, 2-[(2-Methylbenzoyl)amino]-5-phenyl-thiophene-3-carboxylic acid] | 8550 |
| COc1ccc(C(=O)Nc2scc(-c3ccccc3)c2C(=O)O)cc1OC [Compound #46, 2-[(3,4-Dimethoxybenzoyl)amino]-4-phenyl-thiophene-3-carboxylic acid] | 9650 |
| CC(C)(C)[C@H]1CC[C@H](c2csc(NC(=O)c3ccccc3)c2C(=O)O)CC1 [Compound #48, 2-Benzamido-4-(trans-4-tert-butylcyclohexyl)thiophene-3-carboxylic acid] | 350 |
| O=C(Nc1sc(Cl)c(-c2ccc(C(F)(F)F)cc2)c1C(=O)O)c1ccccc1 [Compound #50, 2-Benzamido-5-chloro-4-[4-(trifluoromethyl)phenyl]thiophene-3-carboxylic acid] | 320 |
| CC(C)(C)[C@H]1CC[C@@H](c2csc(NC(=O)c3ccccc3)c2C(=O)O)CC1 [Compound #54, 2-Benzamido-4-(cis-4-tert-butylcyclohexyl)thiophene-3-carboxylic acid] | 460 |
| O=C(Nc1scc(C2CCCC2)c1C(=O)O)c1ccc(N2CCOCC2)cc1 [Compound #59, 4-Cyclopentyl-2-[(4-morpholinobenzoyl)amino]thiophene-3-carboxylic acid] | 75 |
| O=C(Nc1scc(C2CCCC2)c1C(=O)O)c1ccc(NC2CCOCC2)cc1 [Compound #60, 4-Cyclopentyl-2-[[4-(tetrahydropyran-4-ylamino)benzoyl]amino]thiophene-3-carboxylic acid] | 47 |
| COCCNc1ccc(C(=O)Nc2scc(C3CCCC3)c2C(=O)O)cc1 [Compound #61, 4-Cyclopentyl-2-[[4-(2-methoxyethylamino)benzoyl]amino]thiophene-3-carboxylic acid] | 100 |
| COC1CN(c2ccc(C(=O)Nc3scc(C4CCCC4)c3C(=O)O)cc2)C1 [Compound #62, 4-Cyclopentyl-2-[[4-(3-methoxyazetidin-1-yl)benzoyl]amino]thiophene-3-carboxylic acid] | 52 |
| O=C(Nc1scc(C2CC(c3ccccc3)C2)c1C(=O)O)c1ccccc1 (stereo not drawn) [Compound #63, 2-Benzamido-4-(3-phenylcyclobutyl)thiophene-3-carboxylic acid] | 150 |
| O=C(Nc1scc(C2CCCC2)c1C(=O)O)c1ccc(NCC2CCOCC2)cc1 [Compound #66, 4-Cyclopentyl-2-[[4-(tetrahydropyran-4-ylmethylamino)benzoyl]amino]thiophene-3-carboxylic acid] | 15 |
